Columns and labels:
[1] = test system: invasion of colorectal cancer cells; assay: In vivo relative invation (invasion; EV and KITENIN controls, no method described); details: relative to EV (=1); KIT = KITENIN
KAI1 promoter = KAI1 promoter luciferase reporter assay in transfected Caco2 cells; type: cell-based, human; details: 1 μM compound, 16 hours, transfected Caco2 cells, luciferase activity relative to DMSO control (=1); for fold induction at 1 µM: Homo sapiens, Caco-2, 16 h, read-out: Relative KAI promoter activity

O=C(CNC(=O)c1cccc(CN2CCN(c3ccc([N+](=O)[O-])cc3)CC2)c1)c1ccccc1 [Example 238, 3-((4-(4-nitrophenyl)piperazin-1-yl)methyl)-N-(2-oxo-2-phenylethyl)benzamide]
In vivo relative invation [1]: 1.12
fold induction at 1 µM (KAI1 promoter): 1.6

COc1ccc(C(=O)N2CCC(Oc3ccccc3C(=O)NCC(=O)c3ccccc3)CC2)cc1 [Example 173, 2-((1-(4-methoxybenzoyl)piperidin-4-yl)oxy)-N-(2-oxo-2-phenylethyl)benzamide]
In vivo relative invation [1]: 1.121
fold induction at 1 µM (KAI1 promoter): 1.07

O=C(CNS(=O)(=O)Cc1ccccc1)c1ccccc1 [Example 28, N-(2-oxo-2-phenylethyl)-1-phenylmethanesulfonamide]
In vivo relative invation [1]: 1.057
fold induction at 1 µM (KAI1 promoter): 1.02

O=C(CNC(=O)c1ccc(F)c(F)c1)c1ccc(Cl)cc1 [Example 78, N-(2-(4-chlorophenyl)-2-oxoethyl)-3,4ifluorobenzamide]
In vivo relative invation [1]: 1.17
fold induction at 1 µM (KAI1 promoter): 0.9

O=C(CNC(=O)c1ccccc1CN1CCC(N2CCCCC2)CC1)c1ccccc1 [Example 301, 2-([1,4′-bipiperidin]-1′-ylmethyl)-N-(2-oxo-2-phenylethyl)benzamide]
In vivo relative invation [1]: 1.146
fold induction at 1 µM (KAI1 promoter): 1.61

O=C(CNC(=O)c1ccccc1OC1CCN(C(=O)c2cccc(Cl)c2Cl)CC1)c1ccccc1 [Example 198, 2-((1-(2,3-dichlorobenzoyl)piperidin-4-yl)oxy)-N-(2-oxo-2-phenylethyl)benzamide]
In vivo relative invation [1]: 1.15
fold induction at 1 µM (KAI1 promoter): 0.87

O=C(COc1ccccc1C(=O)NCC(=O)c1ccccc1)Nc1ccc2c(c1)CCC2 [Example 219, 2-(2-((2,3-dihydro-1H-inden-5-yl)amino)-2-oxoethoxy)-N-(2-oxo-2-phenylethyl)benzamide]
In vivo relative invation [1]: 1.145
fold induction at 1 µM (KAI1 promoter): 1.27

CN(Cc1ccccc1)Cc1cccc(C(=O)NCC(=O)c2ccccc2)c1 [Example 242, 3-((benzyl(methyl)amino)methyl)-N-(2-oxo-2-phenylethyl)benzamide]
In vivo relative invation [1]: 1.146
fold induction at 1 µM (KAI1 promoter): 1.17

COCC(=O)NCC(=O)c1ccc(Cl)cc1 [Example 65, N-(2-(4-chlorophenyl)-2-oxoethyl)-2-methoxyacetamide]
In vivo relative invation [1]: 1.191
fold induction at 1 µM (KAI1 promoter): 0.84

O=C(CNC(=O)c1ccccc1OC1CCN(C(=O)c2ccc(F)cc2Cl)CC1)c1ccccc1 [Example 194, 2-((1-(2-chloro-4-fluorobenzoyl)piperidin-4-yl)oxy)-N-(2-oxo-2-phenylethyl)benzamide]
In vivo relative invation [1]: 1.259
fold induction at 1 µM (KAI1 promoter): 1.01

COc1ccc(CNC(=O)COc2ccccc2C(=O)NCC(=O)c2ccccc2)cc1OC [Example 215, 2-(2-((3,4-dimethoxybenzyl)amino)-2-oxoethoxy)-N-(2-oxo-2-phenylethyl)benzamide]
In vivo relative invation [1]: 1.304
fold induction at 1 µM (KAI1 promoter): 0.975

O=C(CNC(=O)c1ccccc1OC1CCN(S(=O)(=O)c2cccc([S](=O)=O)c2)CC1)c1ccccc1 [Example 175, 2-((1-((3-(dioxo-15-sulfanyl)phenyl)sulfonyl)piperidin-4-yl)oxy)-N-(2-oxo-2-phenylethyl)benzamide]
In vivo relative invation [1]: 1.149
Relative KAI promoter activity (KAI1 promoter): 0.97

CN(C)c1ccc(C(=O)CNS(=O)(=O)c2ccc(Cl)cc2)cc1 [Example 108, 4-chloro-N-(2-(4-(dimethylamino)phenyl)-2-oxoethyl)benzenesulfonamide]
In vivo relative invation [1]: 0.989
fold induction at 1 µM (KAI1 promoter): 1.36

O=C(CNC(=O)c1ccc(F)cc1Cl)c1ccc(Cl)cc1 [Example 76, 2-chloro-N-(2-(4-chlorophenyl)-2-oxoethyl)-4-fluorobenzamide]
In vivo relative invation [1]: 1.12
fold induction at 1 µM (KAI1 promoter): 0.83

O=C(CNC(=O)c1ccccc1OC1CCN(C(=O)c2cccc(Cl)c2)CC1)c1ccccc1 [Example 157, 2-((1-(3-chlorobenzoyl)piperidin-4-yl)oxy)-N-(2-oxo-2-phenylethyl)benzamide]
In vivo relative invation [1]: 1.089
fold induction at 1 µM (KAI1 promoter): 1.05

CCCCN(C)Cc1cccc(C(=O)NCC(=O)c2ccccc2)c1 [Example 246, 3-((butyl (methyl)amino)methyl)-N-(2-oxo-2-phenylethyl)benzamide]
In vivo relative invation [1]: 1.148
fold induction at 1 µM (KAI1 promoter): 1.88

Cc1cc(C)cc(C(=O)NCC(=O)c2ccc(N(C)C)cc2)c1 [Example 120, N-(2-(4-(dimethylamino)phenyl)-2-oxoethyl)-3,5-dimethylbenzamide]
In vivo relative invation [1]: 1.097
fold induction at 1 µM (KAI1 promoter): 1.38

CCN(Cc1cccc(C(=O)NCC(=O)c2ccccc2)c1)c1ccccc1 [Example 239, 3-((ethyl(phenyl)amino)methyl)-N-(2-oxo-2-phenylethyl)benzamide]
In vivo relative invation [1]: 1.135
fold induction at 1 µM (KAI1 promoter): 1.08

CN(C)c1ccc(C(=O)CNC(=O)c2cccc(Cl)c2Cl)cc1 [Example 118, 2,3-dichloro-N-(2-(4-(dimethylamino)phenyl)-2-oxoethyl)benzamide]
In vivo relative invation [1]: 0.7681
fold induction at 1 µM (KAI1 promoter): 1.74

O=C(CNS(=O)(=O)Cc1ccccc1)c1ccc(Cl)cc1 [Example 70, N-(2-(4-chlorophenyl)-2-oxoethyl)-1-phenylmethanesulfonamide]
In vivo relative invation [1]: 1.274
fold induction at 1 µM (KAI1 promoter): 0.81

C/C=C/C(=O)NCC(=O)c1ccc(N2CCOCC2)cc1 [Example 139, (E)-N-(2-(4-morpholinophenyl)-2-oxoethyl)but-2-enamide]
In vivo relative invation [1]: 1.314
fold induction at 1 µM (KAI1 promoter): 1.01

O=C(CNC(=O)c1ccccc1OC1CCN(C(=O)c2ccc(Cl)cc2)CC1)c1ccccc1 [Example 151, 2-((1-(4-chlorobenzoyl)piperidin-4-yl)oxy)-N-(2-oxo-2-phenylethyl)benzamide]
In vivo relative invation [1]: 1.212
fold induction at 1 µM (KAI1 promoter): 1.05

O=C(CNC(=O)c1ccc(C(F)(F)F)cc1)c1ccc(Cl)cc1 [Example 75, N-(2-(4-chlorophenyl)-2-oxoethyl)-4-(trifluoromethyl)benzamide]
In vivo relative invation [1]: 1.283
fold induction at 1 µM (KAI1 promoter): 0.71

COc1cccc(C(=O)CNC(=O)c2cccs2)c1 [Example 127, N-(2-(3-methoxyphenyl)-2-oxoethyl)thiophene-2-carboxamide]
In vivo relative invation [1]: 1.351
fold induction at 1 µM (KAI1 promoter): 2.46

C=CCN(CC=C)Cc1ccccc1C(=O)NCC(=O)c1ccccc1 [Example 303, 2-((diallylamino)methyl)-N-(2-oxo-2-phenylethyl)benzamide]
In vivo relative invation [1]: 1.138
fold induction at 1 µM (KAI1 promoter): 1.85

CC(C)(C)CC(=O)NCC(=O)c1ccc(Cl)cc1 [Example 60, N-(2-(4-chlorophenyl)-2-oxoethyl)-3,3-dimethylbutanamide]
In vivo relative invation [1]: 0.9713
fold induction at 1 µM (KAI1 promoter): 0.81

C=CC(=O)N1CCC(Oc2ccccc2C(=O)NCC(=O)c2ccccc2)CC1 [Example 160, 2-((1-acryloylpiperidin-4-yl)oxy)-N-(2-oxo-2-phenylethyl)benz amide]
In vivo relative invation [1]: 1.067
fold induction at 1 µM (KAI1 promoter): 1.05

O=C(CNC(=O)c1ccc(CN2CCN(c3ccccn3)CC2)cc1)c1ccccc1 [Example 264, N-(2-oxo-2-phenylethyl)-4-((4-(pyridin-2-yl)piperazin-1-yl)methyl)benzamide]
In vivo relative invation [1]: 1.199
fold induction at 1 µM (KAI1 promoter): 1.91

COc1cccc(NC(=O)COc2ccccc2C(=O)NCC(=O)c2ccccc2)c1 [Example 209, 2-(2-((3-methoxyphenyl)amino)-2-oxoethoxy)-N-(2-oxo-2-phenylethyl)benzamide]
In vivo relative invation [1]: 1.07
fold induction at 1 µM (KAI1 promoter): 1.12

Cc1ccccc1NC(=O)COc1ccccc1C(=O)NCC(=O)c1ccccc1 [Example 202, 2-(2-oxo-2-(o-toylamino)ethoxy)-N-(2-oxo-2-phenylethyl)benzamide]
In vivo relative invation [1]: 1.138
fold induction at 1 µM (KAI1 promoter): 1.31

CN(C)Cc1cccc(C(=O)NCC(=O)c2ccccc2)c1 [Example 231, 3-((dimethylamino)methyl)-N-(2-oxo-2-phenylethyl)benzamide]
In vivo relative invation [1]: 1.122
fold induction at 1 µM (KAI1 promoter): 1.56

COc1cccc(C(=O)CNC(=O)c2cccc(CN3CCC(N4CCCCC4)CC3)c2)c1 [Example 283, 3-([1,4′-bipiperidin]-1′-ylmethyl)-N-(2-(3-methoxyphenyl)-2-oxoethyl)benzamide]
In vivo relative invation [1]: 1.235
fold induction at 1 µM (KAI1 promoter): 1.33

COc1cccc(C(=O)CNC(=O)c2ccc(Cl)cc2)c1 [Example 122, 4-chloro-N-(2-(3-methoxyphenyl)-2-oxoethyl)benzamide]
In vivo relative invation [1]: 1.374
fold induction at 1 µM (KAI1 promoter): 1.65

O=C(CNC(=O)c1ccc(Cl)cc1)c1ccc(Cl)cc1 [Example 87, 4-chloro-N-(2-(4-chlorophenyl)-2-oxoethyl)benzamide]
In vivo relative invation [1]: 1.218
fold induction at 1 µM (KAI1 promoter): 0.91

Source: patent US20230150924A1, “NOVEL COMPOUND HAVING CANCER METASTASIS INHIBITORY ACTIVITY, PREPARATION METHOD THEREFOR, AND PHARMACEUTICAL COMPOSITION FOR INHIBITING CANCER METASTASIS AND INVASION OR TREATING COLORECTAL CANCER, COMPRISING COMPOUND” (CELLGENTEK CO., LTD., priority 2019, published 2023)
